Laboratory results: the NIST ThermoML archive (doi:10.1016/j.jct.2005.02.003)
Numbers after ± are expanded uncertainties.

Key:
[1] = Crystal; Adiabatic calorimetry
[2] = Molar enthalpy of transition or fusion; conditions: Crystal; Adiabatic calorimetry

Triple point temperature [1]: 162.33 ± 0.05 K | Molar enthalpy of transition or fusion [2]: 2.067 ± 0.012 kcal/mol
SMILES: CC(C)COC(C)(C)C [isobutyl tert-butyl ether]
